Assay results as given in US4181728A, “Spiro-polycyclicimidazolidinedione derivatives” (Pfizer Inc., priority 1978, dated 1980).

What was measured:
[1] = tested on: sorbitol accumulation in the sciatic nerve; assay: Inhibition of sorbitol accumulation in the sciatic nerve of streptozotocinized (diabetic) rats; format: in vivo, rat; settings: measured 27 h after induction, vs untreated
Description: Some of the Examples of spiro-polycyclicimidazolidinedione derivatives prepared above were also tested for their ability to reduce or inhibit sorbitol accumulation in the sciatic nerve of streptozotocinized (i.e., diabetic) rats by the procedure essentially described in U.S. Pat. No. 3,821,383. In the present study, the amount of sorbitol accumulation in the sciatic nerves was measured 27 hours after induction of diabetes. The compounds were administered orally at the dose level indicated at 4, 8 and 24 hours following the administration of streptozotocin. The results obtained in this manner are presented in terms of percent inhibition (%) afforded by the test compound as compared to the case where no compound was administered (i.e., the untreated animal where sorbitol levels normally rise from approximately […] tissue to as high as 400 mM/g tissue in the 27-hour test period).

[2] = biological target: T1, aldose reductase enzyme obtained from calf lens (Bos taurus, UniProt P16116); assay: Aldose reductase inhibitory activity (partially purified calf lens enzyme); format: biochemical; settings: 10^-4 M, * = average of 2 or 3 tests (Examples 2, 5, 6, 7)
T1 construct: partially purified aldose reductase enzyme obtained from calf lens; from tissue; host or cells: calf lens
Description: The Examples of spiro-polycyclicimidazolidinedione derivatives prepared above were tested for their ability to reduce or inhibit aldose reductase enzyme activity, following the procedure described in U.S. Pat. No. 3,821,383 and based on the procedure of Hayman et. al., Journal of Biological Chemistry, 240, 877 (1965). The substrate employed was partially purified aldose reductase enzyme obtained from calf lens. The drug was tested at a concentration of 10^-4 M and optionally at lower concentrations and the results are expressed as percent inhibition of enzyme activity.
*This number represents an average of 2 or 3 tests.

[3] = 1.5 mg/kg oral at 4, 8 and 24 h after streptozotocin
[4] = 5.0 mg/kg oral at 4, 8 and 24 h after streptozotocin

inhibition at 100 µM [2] [%]	SMILES	% Inhibition of sorbitol accumulation [1, 3]	% Inhibition of sorbitol accumulation [1, 4] [%]
72	O=C1NC(=O)C2(CCOc3c2ccc2ccccc32)N1 (centres unmarked) [Example 9, 2',3'-dihydro-spiro[imidazolidine-4,4'-[4'H]-naphtho[1,2-b]pyran]-2,5-dione]	30%	–
78	O=C1NC(=O)C2(CCOc3ccc4ccccc4c32)N1 (centres unmarked) [Example 6, 2',3'-dihydro-spiro[imidazolidine-4,4'-[4'H]-naphtho[2,1-b]pyran]-2,5-dione]	no effect	–
94	COc1cccc2c3c(ccc12)C1(CCO3)NC(=O)NC1=O (centres unmarked) [Example 2, 2',3'-dihydro-7'-methoxy-spiro[imidazolidine-4,4'-[4'H]-naphtho[1,2-b]pyran]-2,5-dione]	no effect	–
26	O=C1NC(=O)C2(CCCc3ccc4cc5ccccc5cc4c32)N1 (centres unmarked) [Example 3, 1',2',3',4'-tetrahydro-spiro[imidazolidine-4,1'-benz[a]anthracene]-2,5-dione]	–	–
60	O=C1NC(=O)C2(CCCc3ccc4ccccc4c32)N1 (centres unmarked) [Example 10, 1',2',3',4'-tetrahydro-spiro[imidazolidine-4,4'-phenanthrene]-2,5-dione]	–	–
78	O=C1NC(=O)C2(CCOc3c2cc(Cl)c2ccccc32)N1 (centres unmarked) [Example 5, 5',6'-dihydro-6'-chloro-spiro[imidazolidine-4,4'-[4'H]-naphtho[1,2-b]pyran]-2,5-dione]	–	58
59	O=C1NC(=O)C2(CCSc3ccc4ccccc4c32)N1 (centres unmarked) [Example 1, 2',3'-dihydro-spiro[imidazolidine-4,4'-[4'H]-naphtho[2,1-b]thiopyran]-2,5-dione]	–	–
86	O=C1NC(=O)C2(CCCc3c2ccc2ccccc32)N1 (centres unmarked) [Example 7, 1',2',3',4'-tetrahydro-spiro[imidazolidine-4,1'-phenanthrene]-2,5-dione]	no effect	–
71	O=C1NC(=O)C2(CCc3cccc4cccc2c34)N1 (centres unmarked) [Example 8, 2',3'-dihydro-spiro[imidazolidine-4,1'-phenalene]-2,5-dione]	–	28
100	O=C1NC(=O)C2(CCSc3c2ccc2ccccc32)N1 (centres unmarked) [Example 4, 2',3'-dihydro-spiro[imidazolidine-4,4'-[4'H]-naphtho[1,2-b]thiopyran]-2,5-dione]	32%	–
